Among the data in patent publication US12577245B2, “Sulfonyl benzamide derivatives as Bcl-2 inhibitors” (ASCENTAGE PHARMA (SUZHOU) CO., LTD., priority 2021, dated 2026) are IC50 values, retold here.

The assay addresses Bcl-2 G101V (Homo sapiens, UniProt P10415, G101V). In words: Bcl-2 G101V inhibition, fluorescence polarization (Flu-BIM tracer) binding assay. The settings on record: FP; 20 nM Bcl2, 5 nM Flu-BIM, 1 h incubation; read-out: Bcl-2 G101V (FP). For orientation: Polarisation of emitted light reports the rotation of a fluorescent probe.

For the molecule `CC1(C)CCC(CN2CCN(c3ccc(C(=O)NS(=O)(=O)c4ccc(NC[C@H]5CC[C@@](C)(O)CC5)c([N+](=O)[O-])c4)c(Oc4cnc5[nH]ccc5c4)c3)CC2)=C(c2cc(CN3CCOCC3)cs2)C1` [Example 23, 2-((1H-pyrrolo[2,3-b]pyridin-5-yl)oxy)-4-(4-((4,4-dimethyl-2-(4-(morpholinomethyl)thiophen-2-yl)cyclohex-1-en-1-yl)methyl)piperazin-1-yl)-N-((4-((((1s,4s)-4-hydroxy-4-methylcyclohexyl)methyl)amino)-3-nitrophenyl)sulfonyl)benzamide], the IC50 came to 28.2 nM. Then `CC1(C)CCC(CN2CCN(c3ccc(C(=O)NS(=O)(=O)c4ccc(NC[C@H]5CC[C@](C)(O)CC5)c([N+](=O)[O-])c4)c(Oc4cnc5[nH]ccc5c4)c3)CC2)=C(c2cc(-c3ccc(F)cc3)cs2)C1` [Example 37, 2-((1H-pyrrolo[2,3-b]pyridin-5-yl)oxy)-4-(4-((2-(4-(4-fluorophenyl)thiophen-2-yl)-4,4-dimethylcyclohex-1-en-1-yl)methyl)piperazin-1-yl)-N-((4-((((1r,4r)-4-hydroxy-4-methylcyclohexyl)methyl)amino)-3-nitrophenyl)sulfonyl)benzamide], with 34.9 nM; and `CC1(C)CCC(CN2CCN(c3ccc(C(=O)NS(=O)(=O)c4ccc(NC[C@H]5CC[C@@](C)(O)CC5)c([N+](=O)[O-])c4)c(Oc4cnc5[nH]ccc5c4)c3)CC2)=C(c2cc(-c3ccc(F)cc3)cs2)C1` [Example 36, 2-((1H-pyrrolo[2,3-b]pyridin-5-yl)oxy)-4-(4-((2-(4-(4-fluorophenyl)thiophen-2-yl)-4,4-dimethylcyclohex-1-en-1-yl)methyl)piperazin-1-yl)-N-((4-((((1s,4s)-4-hydroxy-4-methylcyclohexyl)methyl)amino)-3-nitrophenyl)sulfonyl)benzamide], with 46.2 nM; and `CC1(C)CCC(CN2CCN(c3ccc(C(=O)NS(=O)(=O)c4ccc(NC[C@H]5CC[C@](C)(O)CC5)c([N+](=O)[O-])c4)c(Oc4cnc5[nH]ccc5c4)c3)CC2)=C(c2cc(-c3cccc(C(C)(C)O)c3)cs2)C1` [Example 70, 2-((1H-pyrrolo[2,3-b]pyridin-5-yl)oxy)-N-((4-((((1r,4r)-4-hydroxy-4-methylcyclohexyl)methyl)amino)-3-nitrophenyl)sulfonyl)-4-(4-((2-(4-(3-(2-hydroxypropan-2-yl)phenyl)thiophen-2-yl)-4,4-dimethylcyclohex-1-en-1-yl)methyl)piperazin-1-yl)benzamide], with 36.9 nM. Then `CC1(C)CCC(CN2CCN(c3ccc(C(=O)NS(=O)(=O)c4ccc(NC[C@H]5COCCO5)c([N+](=O)[O-])c4)c(Oc4cnc5[nH]ccc5c4)c3)CC2)=C(c2cc(CN3CCN(C4COC4)CC3)cs2)C1` [Example 31, (S)—N-((4-(((1,4-dioxan-2-yl)methyl)amino)-3-nitrophenyl)sulfonyl)-2-((1H-pyrrolo[2,3-b]pyridin-5-yl)oxy)-4-(4-((4,4-dimethyl-2-(4-((4-(oxetan-3-yl)piperazin-1-yl)methyl)thiophen-2-yl)cyclohex-1-en-1-yl)methyl)piperazin-1-yl)benzamide], with 59.2 nM.

In the case of `CC1(C)CCC(CN2CCN(c3ccc(C(=O)NS(=O)(=O)c4ccc(NC[C@H]5CC[C@](C)(O)CC5)c([N+](=O)[O-])c4)c(Oc4cnc5[nH]ccc5c4)c3)CC2)=C(c2cc(-c3c(F)cc(C(C)(C)O)cc3F)cs2)C1` [Example 63, 2-((1H-pyrrolo[2,3-b]pyridin-5-yl)oxy)-4-(4-((2-(4-(2,6-difluoro-4-(2-hydroxypropan-2-yl)phenyl)thiophen-2-yl)-4,4-dimethylcyclohex-1-en-1-yl)methyl)piperazin-1-yl)-N-((4-((((1r,4r)-4-hydroxy-4-methylcyclohexyl)methyl)amino)-3-nitrophenyl)sulfonyl)benzamide], the IC50 was found to be 32.3 nM. Then `CC1(C)CCC(CN2CCN(c3ccc(C(=O)NS(=O)(=O)c4ccc(NC[C@H]5COCCO5)c([N+](=O)[O-])c4)c(Oc4cnc5[nH]ccc5c4)c3)CC2)=C(c2cc3c(s2)CCN(c2ccc(F)cc2)C3)C1` [Example 15, (S)—N-((4-(((1,4-dioxan-2-yl)methyl)amino)-3-nitrophenyl)sulfonyl)-2-((1H-pyrrolo[2,3-b]pyridin-5-yl)oxy)-4-(4-((2-(5-(4-fluorophenyl)-4,5,6,7-tetrahydrothieno[3,2-c]pyridin-2-yl)-4,4-dimethylcyclohex-1-en-1-yl)methyl)piperazin-1-yl)benzamide], with 65.1 nM. Then `CC1(C)CCC(CN2CCN(c3ccc(C(=O)NS(=O)(=O)c4ccc(NC[C@H]5CC[C@](C)(O)CC5)c([N+](=O)[O-])c4)c(Oc4cnc5[nH]ccc5c4)c3)CC2)=C(c2cc(-c3cc(F)c(F)c(F)c3)cs2)C1` [Example 45, 2-((1H-pyrrolo[2,3-b]pyridin-5-yl)oxy)-4-(4-((4,4-dimethyl-2-(4-(3,4,5-trifluorophenyl)thiophen-2-yl)cyclohex-1-en-1-yl)methyl)piperazin-1-yl)-N-((4-((((1r,4r)-4-hydroxy-4-methylcyclohexyl)methyl)amino)-3-nitrophenyl)sulfonyl)benzamide], with 49 nM. For `CC1(C)CCC(CN2CCN(c3ccc(C(=O)NS(=O)(=O)c4ccc(NC[C@H]5COCCO5)c([N+](=O)[O-])c4)c(Oc4cnc5[nH]ccc5c4)c3)CC2)=C(c2cc(-c3c(F)cc(C(C)(C)O)cc3F)cs2)C1` [Example 64, (S)—N-((4-(((1,4-dioxan-2-yl)methyl)amino)-3-nitrophenyl)sulfonyl)-2-((1H-pyrrolo[2,3-b]pyridin-5-yl)oxy)-4-(4-((2-(4-(2,6-difluoro-4-(2-hydroxypropan-2-yl)phenyl)thiophen-2-yl)-4,4-dimethylcyclohex-1-en-1-yl)methyl)piperazin-1-yl)benzamide] the value was 37 nM. `CC1(C)CCC(CN2CCN(c3ccc(C(=O)NS(=O)(=O)c4ccc(NC[C@H]5COCCO5)c([N+](=O)[O-])c4)c(Oc4cnc5[nH]ccc5c4)c3)CC2)=C(c2cc(CN3CCC(N4CCOCC4)CC3)cs2)C1` [Example 28, (S)—N-((4-(((1,4-dioxan-2-yl)methyl)amino)-3-nitrophenyl)sulfonyl)-2-((1H-pyrrolo[2,3-b]pyridin-5-yl)oxy)-4-(4-((4,4-dimethyl-2-(4-((4-morpholinopiperidin-1-yl)methyl)thiophen-2-yl)cyclohex-1-en-1-yl)methyl)piperazin-1-yl)benzamide]: the IC50 is 47 nM. As for `Cc1sc(C2=C(CN3CCN(c4ccc(C(=O)NS(=O)(=O)c5ccc(NC[C@H]6CC[C@](C)(O)CC6)c([N+](=O)[O-])c5)c(Oc5cnc6[nH]ccc6c5)c4)CC3)CCC(C)(C)C2)cc1-c1c(F)cc(C(C)(C)O)cc1F` [Example 81, 2-((1H-pyrrolo[2,3-b]pyridin-5-yl)oxy)-4-(4-((2-(4-(2,6-difluoro-4-(2-hydroxypropan-2-yl)phenyl)-5-methylthiophen-2-yl)-4,4-dimethylcyclohex-1-en-1-yl)methyl)piperazin-1-yl)-N-((4-((((1r,4r)-4-hydroxy-4-methylcyclohexyl)methyl)amino)-3-nitrophenyl)sulfonyl)benzamide], the IC50 amounted to 103 nM.
